The results in this text go back to patent US8153615B2, “Synthesis of glycerolipid carbamates and dicarbamates and their use as an antitumor compounds” (priority 2005, dated 2012).

Values joined by “and” are separate entries in the source; they are usually repeats but may differ in a detail not shown here. Equal values may be shown once.

Experiment [1] has as its system prostate cancer cells (DU145, PC3) relative to other cancer cell lines. As to the kind of experiment: Prostate cancer cell selectivity across the panel of human cancer cell lines. The format is cell-based. The note with it: prostate lines versus other cancer cell lines, 48 h. The text has this: (§1) We screened the compounds against a panel of human cancer cell lines derived from a number of tissues. These were breast (MCF-7, BT549, SKBr3, MDA-MB-231), lung (A549), cervix (HeLa), and prostate (DU145, PC3) cancer cell lines. […] In some cases, the IC50 values were much lower than values reported for ET-18-OCH3, indicative of a greater degree of potency of these new compounds. The most striking observation is that the greatest inhibition of cell growth was found when the two prostate cell lines, DU145 and PC3, were treated with these compounds. […] Because hormone-insensitive prostate cancer cells are highly sensitive to the active compounds described herein, (compounds I, II, and III), we postulate that it may be possible to selectively kill prostate cancer cells with low concentrations without harming other cells in the body. The prostate selectivity observed with compound I was also observed with compounds II and III (Table 1 and FIGS. 3 and 4) and distinguishes these compounds from other antitumor compounds.

Experiment [2] deals with DU145 cells. In words: Antiproliferative evaluation, CyQuant assay, DU145. The note with it: exponentially growing cells, 48 h incubation, read-out: IC50, growth inhibition, DU145, prostate. The format is cell-based, human. Here is the method:
(§2) FIG. 2 is a graphical depiction of the results of an antiproliferative evaluation of compound I against the following cancer cell lines: DU145, PC3, BT549, HeLa, MDA-MB-231, A549, and MCF-7. Cells growing exponentially in 48-well plates were incubated with different concentrations of compound I for 48 h. The increases in cell numbers were determined by the CyQuant assay and are expressed as a percentage of the increase in control wells with the vehicle (0.1% ethanol). The results are the average+SD from six different wells.
(§3) FIG. 3 is a graphical depiction of the results of an antiproliferative evaluation of compound II against the following cancer cell lines: DU145, PC3, BT549, HeLa, MDA-MB-231, A549, and MCF-7. Cells growing exponentially in 48-well plates were incubated with different concentrations of compound II for 48 h. The increases in cell numbers were determined by the CyQuant assay and are expressed as a percentage of the increase in control wells with the vehicle (0.1% ethanol). The results are the average+SD from six different wells.
(§4) FIG. 4 is a graphical depiction of the results of an antiproliferative evaluation of compound III against the following cancer cell lines: DU145, PC3, BT549, HeLa, MDA-MB-231, A549, and MCF-7. Cells growing exponentially in 48-well plates were incubated with different concentrations of compound III for 48 h. The increases in cell numbers were determined by the CyQuant assay and are expressed as a percentage of the increase in control wells with the vehicle (0.1% ethanol). The results are the average+SD from six different wells.
(§5) FIG. 5 is a graphical depiction of the results of an antiproliferative evaluation of compound IV against the following cancer cell lines: DU145, PC3, BT549, HeLa, MDA-MB-231, A549, and MCF-7. Cells growing exponentially in 48-well plates were incubated with different concentrations of compound IV for 48 h. The increases in cell numbers were determined by the CyQuant assay and are expressed as a percentage of the increase in control wells with the vehicle (0.1% ethanol). The results are the average+SD from six different wells.
(§6) FIG. 6 is a graphical depiction of the results of an antiproliferative evaluation of compound V against the following cancer cell lines: DU145, PC3, BT549, HeLa, MDA-MB-231, A549, and MCF-7. Cells growing exponentially in 48-well plates were incubated with different concentrations of compound V for 48 h. The increases in cell numbers were determined by the CyQuant assay and are expressed as a percentage of the increase in control wells with the vehicle (0.1% ethanol). The results are the average+SD from six different wells.
(§7) We screened the compounds against a panel of human cancer cell lines derived from a number of tissues. […]

In another experiment the test system is SK-N-SH cells. The note with it: read-out: IC50, antiproliferative effect, SK-N-SH (neuronal); proliferating cells, 0-20 μM, 48 h, CyQuant assay. How it is done: (§8) Specifically, proliferating cells in 48-well plates were incubated with 0-20 μM of the compound for 48 hours. The cell numbers present were determined by the CyQuant™ assay (Invitrogen), and the increase in numbers were expressed relative to the controls receiving only the vehicle (0.1% ethanol).
(§9) Proliferating cells in 48-well plates were incubated with 0-20 μM of the compound for 48 h. The cell numbers present were determined by the CyQuant™ assay (Invitrogen), and the increase in numbers were expressed relative to the controls receiving only the vehicle (0.1% ethanol).

For a further experiment, the system named is SK-N-MC cells. The note with it: read-out: IC50, antiproliferative effect, SK-N-MC (neuronal); proliferating cells, 0-20 μM, 48 h, CyQuant assay. How it is done:
as §8, §9

The subject of a further experiment is HepG2 cells. The note with it: read-out: IC50, antiproliferative effect, HepG2 (liver); proliferating cells, 0-20 μM, 48 h, CyQuant assay. How it is done: as §8, §9
A further experiment has as its system MCF-7 cells. As to the kind of experiment: Antiproliferative evaluation, CyQuant assay, MCF-7. The format is cell-based, human. The note with it: exponentially growing cells, 48 h incubation, read-out: IC50, growth inhibition, MCF-7, breast. Here is the method:
as §2, §3, §4, §5
(§10) FIG. 6 is a graphical depiction of the results of an antiproliferative evaluation of compound V against the following cancer cell lines: DU145, PC3, BT549, HeLa, MDA-MB-231, A549, and MCF-7. Cells growing exponentially in 48-well plates were incubated with different concentrations of compound V for 48 h. The increases in cell numbers were determined by the CyQuant assay and are expressed as a percentage of the increase in control wells with the vehicle (0.1% ethanol). The results are the average+SD from six different wells. […]

The test system of a further experiment is PC3 cells. In words: Antiproliferative evaluation, CyQuant assay, PC3. The format is cell-based, human. The note with it: exponentially growing cells, 48 h incubation, read-out: IC50, growth inhibition, PC3, prostate. How it is done: as §2, §3, §4, §5, §6, §7
In the next experiment the test system is A549 cells. In words: Antiproliferative evaluation, CyQuant assay, A549. The format is cell-based, human. The note with it: exponentially growing cells, 48 h incubation, read-out: IC50, growth inhibition, A549, lung. Here is the method:
as §2, §3, §4, §5, §10

Another experiment has as its system BT549 cells. As to the kind of experiment: Antiproliferative evaluation, CyQuant assay, BT549. The format is cell-based, human. The note with it: exponentially growing cells, 48 h incubation, read-out: IC50, growth inhibition, BT549, breast. How it is done: as §2
(§11) FIG. 3 is a graphical depiction of the results of an antiproliferative evaluation of compound II against the following cancer cell lines: DU145, PC3, BT549, HeLa, MDA-MB-231, A549, and MCF-7. Cells growing exponentially in 48-well plates were incubated with different concentrations of compound II for 48 h. The increases in cell numbers were determined by the CyQuant assay and are expressed as a percentage of the increase in control wells with the vehicle (0.1% ethanol). […]
(§12) FIG. 4 is a graphical depiction of the results of an antiproliferative evaluation of compound III against the following cancer cell lines: DU145, PC3, BT549, HeLa, MDA-MB-231, A549, and MCF-7. […] The increases in cell numbers were determined by the CyQuant assay and are expressed as a percentage of the increase in control wells with the vehicle (0.1% ethanol). […]
(§13) FIG. 5 is a graphical depiction of the results of an antiproliferative evaluation of compound IV against the following cancer cell lines: DU145, PC3, BT549, HeLa, MDA-MB-231, A549, and MCF-7. […] The increases in cell numbers were determined by the CyQuant assay and are expressed as a percentage of the increase in control wells with the vehicle (0.1% ethanol). […]
(§14) FIG. 6 is a graphical depiction of the results of an antiproliferative evaluation of compound V against the following cancer cell lines: DU145, PC3, BT549, HeLa, MDA-MB-231, A549, and MCF-7. […] The increases in cell numbers were determined by the CyQuant assay and are expressed as a percentage of the increase in control wells with the vehicle (0.1% ethanol). […]

The next experiment has as its system MDA-MB-231 cells. In words: Antiproliferative evaluation, CyQuant assay, MDA-MB-231. The note with it: exponentially growing cells, 48 h incubation, read-out: IC50, growth inhibition, MDA-MB-231, breast. The format is cell-based, human. Here is the method:
as §2, §11, §12, §13, §14

The subject of another experiment is HeLa cells. As to the kind of experiment: Antiproliferative evaluation, CyQuant assay, HeLa. The format is cell-based, human. The note with it: exponentially growing cells, 48 h incubation, read-out: IC50, growth inhibition, HeLa, cervix. How it is done: as §2, §11, §12, §13, §14
The test system of experiment [3] is DU145 cells. In words: Toxicity (loss of viability) to DU145 cells. The format is cell-based, human.
Text: as §1

The IC50 is the point on the concentration scale where inhibition reaches its midpoint. With “1-O-(7-N, N-dimethylamino-3-pentadecanoyl-1-napthyl)-2-O-methyl-sn-glycero-3-phosphocholine”, the “prostate cancer cell selectivity” value in [1] was “highly selective for prostate cancer cells”. Besides, the IC50 in the experiment on DU145 cells [2] is 3.5 µM; with SK-N-SH cells, under 20 µM; with SK-N-MC cells, over 20 µM; in the experiment with HepG2 cells, over 20 µM; in the experiment with MCF-7 cells it was over 20 µM; with PC3 cells, 1.9 µM. In addition, the IC50 in the experiment on A549 cells was over 20 µM.

As to `CCCCCCCCCCCCCCCCOC[C@@H](COP(=O)([O-])OCC[N+](C)(C)C)NC(=O)OC` [Compound III, 2′-(trimethylammonio)ethyl 2(S)—(N-methoxycarbonylamido)-3-hexadecyloxypropanephosphate], the IC50 with BT549 cells is 13.4 µM; in the experiment on MDA-MB-231 cells, 10.5 µM; with DU145 cells [2] it was 2.4 µM; in the experiment on MCF-7 cells, 9.1 µM; in the experiment on PC3 cells it was 1.9 µM; in the experiment on HeLa cells it was 19.3 µM. Also, in the experiment with A549 cells, the IC50 is over 20 µM. Also, in [1], the “prostate cancer cell selectivity” value is “greatest prostate cancer cell selectivity”.

On to `CCCCCCCCCCCCCCCCOC[C@@H](CCP(=O)([O-])OCC[N+](C)(C)C)OC(=O)NC` [Compound I, 2′-(trimethylammonio)ethyl 4-hexadecyloxy-3(R)—N-methylcarbamoyl-1-butanephosphonate], for which the 50% inhibitory concentration (IC50) is 4.4 µM in the experiment on BT549 cells; 3.7 µM with MDA-MB-231 cells; 1 µM and 1.2 µM in the experiment on DU145 cells [2]; 4 µM in the experiment on MCF-7 cells; 1.2 µM with PC3 cells; 3.3 µM with HeLa cells. In the experiment on A549 cells, the IC50 turned out to be 10.7 µM. The “concentration toxic to the cells (loss of viability)” value in the experiment with DU145 cells [3] was 2.5 µM.

Consider `CCCCCCCCCCCCCCCCOC[C@H](CCP(=O)([O-])OCC[N+](C)(C)C)OC(=O)NC` [Compound II, 2′-(trimethylammonio)ethyl 4-hexadecyloxy-3(S)—N-methylcarbamoyl-1-butane-phosphonate], for which the IC50 in the experiment with BT549 cells was found to be 6.8 µM; in the experiment on MDA-MB-231 cells, 6.1 µM; with DU145 cells [2] it was 2.1 µM; in the experiment on MCF-7 cells, 10.1 µM; in the experiment on PC3 cells, 2.5 µM; with HeLa cells, 7.9 µM. Further, in the experiment on A549 cells, the IC50 is over 20 µM.
